Test results reported in patent US6420371B1, “Quinazolinone-containing pharmaceutical compositions for prevention of neovascularization and for treating malignancies” (Madasit Medical Research Services & Development Co., Ltd., priority 1997, dated 2002).
“And” between values parts separate entries of the source, which are not always exact repeats. Equal entries are not always repeated.

Tests used:
[1] = tested on: human leiomyosarcoma tumor cells; assay: Proliferation ([3H]thymidine incorporation) of human leiomyosarcoma tumor cells; format: cell-based
Method: Samples of human leiomyosarcoma tumors were obtained from women undergoing surgical hysterectomy, as described [R. S. Mangrulker, et al., ibid.]. Minced tissue was placed into 20 ml cold homogenization buffer: 1 M NaCl, 10 mM Tris (pH 7.4), 1 mM EDTA, 1 mM benzamidine, 0.1% CHAPS, 0.01% Aprotinin (Sigma), 10 μg/ml leupeptin, 1 mM AEBSF [R. S. Mangrulker, et al., ibid]. Samples were homogenized for 2 min and centrifuged at 12000 a g for 60 min at 4° C. The supernatants were diluted 1:5 with 10 mM Tris (pH 7.4) to a final volume of 100 ml and filtered with 0.45 μm nylon fibers. Cells were plated and maintained in DMEM plus 10% calf serum. The cells remained viable over a number of passages but were used at passages 2 or 3. For proliferation assays, cells were plated in 96-well plates at 10,000 cells/well an 200 μl medium (DMEM with 4.5 G/L glucose, 10% calf serum. 1% glutamine, 1% penicillin/streptomycin) and incubated 2 days until confluent. […] The medium was changed to DMEM with 0.5%calf serum, 1 μM insulin and 5 μM transferrin. After 24 h, the samples (5-10 μl) were added and after an additional 24 h, [^3H]thymidine (1 μCi/well) was added to each well. After 36-48 h incubation, the cells were fixed with methanol, and the DNA was precipitated with 5% trichloroacetic acid. The cells were lysed with 150 μl/well of 0.3 N NaOH, transferred to scintillation vials, and counted on a β-counter. […] The effect of Halofuginone on proliferation of HB-EGF (Heparin-Binding Epidermal Growth Factor) and serum-stimulated leiomyosarcoma cells was then examined. The leiomyosarcoma tumor cells were growth-arrested by 48 h incubation in medium containing 0.5% FCS. The cells were then exposed (24 h) to either 10% FCS or 10 ng/ml HB-EGF in the absence or presence of 10 ng/ml Halofuginone. [^3H]thymidine was then added and DNA synthesis measured 36 h later.

[2] = tested on: bovine corneal endothelial cells; assay: Incorporation of sulfate, proline, lysine and glycine into ECM (CDP and NCDP); format: cell-based; settings: eight days after seeding
Method: Corneal endothelial cells were seeded at a confluent density and grown as described in Example 5 above. The cells were cultured with or without Halofuginone in the presence of either Na2^35SO4 (FIG. 8A), ^3H-proline (FIG. 8B), ^14C-lysine (FIG. 8C) or ^14C-glycine (FIG. […]). Eight days after seeding, the cell layer was dissolved substantially as described in Example 5 above. The underlying ECM was then either trypsinized to determine the effect of Halofuginone on incorporation of labelled material into total protein, substantially as described in Example 5 above, or subjected to sequential digestions with collagenase and trypsin to evaluate the effect of Halofuginone on both collagenase-digestible proteins (CDP) and non-collagenase digestible proteins (NCDP).

[3] = tested on: corneal neovascularization; assay: Murine corneal angiogenesis model (bFGF pellet); format: in vivo, mice; set-up: VL (maximum vessel length of the neovascularization zone): unit not given here; settings: 2 μg/mouse/day i.p. for 5 days
Method: A murine corneal angiogenesis model was used to evaluate the inhibitory effect of Halofuginone in vivo. The angiogenic factor bFGF was applied into a corneal pocket in a pellet made of a slow release polymer, as described below, and Halofuginone (2 μg/mouse/day) was administered i.p. for 5 consecutive days. The pellets were made of the slow-release polymer Hydron (polyhydroxyethylmethacrylate [polyHEMA], Interferon Sciences, N.J.) containing sucralfate alone, or sucralfate and bGFG. A suspension of sterile saline 10 μg recombinant bFGF plus 10 mg of sucralfate was prepared and speed vacuumed for 5 minutes. To this suspension, 10 μl of 12% Hydron in ethanol was added. The suspension was then deposited onto an autoclave sterilized, 15×15 mm piece of nylon mesh (TETKO, 3-300/50, approximate pore size 0.4×0.4 mm) and embedded between the fibers resulting in a grid of 10×10 squares. Both sides of the mesh were then covered with a thin layer of Hydron to hydrophobically stabilize the pellet during implantation. These layers were allowed to dry on a sterile petri dish for 30 minutes. Subsequently, the fibers of the mesh were pulled apart under a microscope, and about 30-40 uniformly sized pellets of 0.4×0.2×0.2 mm, containing approximately 80-100 ng bGFG per pellet, were collected. Such pellets can be stored frozen at −20° C. for several weeks without loss of bioactivity. C57B⅙ mice of about 7-9 weeks of age were anesthetized with methoxyflurane. The eyes were topically anesthetized with 0.5% proparacaine, and the globe was proposed with a jeweler's forceps. A central, intrastromal linear keratotomy of approximately 0.6 mm length was performed with a surgical blade and a lamellar micropocket was dissected towards the temporal limbus. The temporal extent of the packet was within 0.7-1.0 mm of the limbus. A single pellet was then placed on the corneal surface at the base of the pocket with jeweler's forceps, and using one arm of the forceps, the pellet was advanced toward the temporal end of the pocket. Antibiotic ointment (erythromycin) was applied once to the operated eye, not only to prevent infection, but also to decrease irritation of the irregular ocular surface. […] On post-operative day 5, mice were anesthetized with methoxyflurane, the eyes were proptosed, and the maximum vessel length (VL) of the neovascularization zone extending from the base of the limbal vascular plexus toward the pellet was measured with a linear reticule through the slit lamp. The contiguous circumferential zone of neovascularization (CH) was measured as clock hours with a 360 degree reticule. […] The area of neovascularization was calculated according to the following formula: [formula] where A is area, CH is contiguous circumferential zone of neovascularization and VL is maximal vessel length.

rat aortic rings = assay: Microvessel formation from rat aortic rings embedded in type I collagen gel; format: cell-based
Method: Thoracic aortas were obtained from 1- to 2-month-old SD (Sprague-Dawley) rats sacrificed by decapitation [R. F. Nicosia and A. Ottinetti, Lab. Invest, Vol. 63, pp. 115-122 (1991)]. The aortas were immediately transferred to a Petri dish with PBS. The fibro-adipose tissue around the aorta was carefully removed under a dissecting microscope, and 1 mm-long aortic rings were sectioned and extensively rinsed in PBS. Type I collagen solution (0.2 ml) was added to each 16-mm well and gellation was allowed for 15 min at 37° C. Each aorta ring was transferred and positioned to the center of the gel and another 0.4 ml of the collagen solution was carefully poured on top of the ring. […]

collagen type I = settings: in vitro; cited from earlier work
[4] = individual mice, post-operative day 5

Compound: O=C(CC1NCCCC1O)Cn1cnc2cc(Br)c(Cl)cc2c1=O (stereo not drawn) [Halofuginone]
- inhibition of cell proliferation induced by HB-EGF ([1]; 10 ng/ml HB-EGF, 10 ng/ml Halofuginone, growth-arrested cells): complete inhibition
- inhibition of cell proliferation induced by serum ([1]; 10% FCS, 10 ng/ml Halofuginone, growth-arrested cells): complete inhibition
- inhibition at 0.0025 µg/mL ([1]; Homo sapiens, 2.5 ng/ml Halofuginone (FIG. 11A)): 60 to 70%
- incorporation of sulfate, proline, lysine and glycine into both CDP and NCDP [2]: inhibited
- inhibition of neovascularization area vs control [3]: about 29%
- average area of neovascularization ([3]; n=7, calculated from CH and VL): 1.90 mm^2
- CH (contiguous circumferential zone of neovascularization) [3, 4]: 3.5 clock hours and 3 clock hours (3×) and 2.5 clock hours and 4 clock hours and 1 clock hours
- VL (maximum vessel length of the neovascularization zone) [3, 4]: 1 (3×) and 1.1 and 1.2 and 0.9
- inhibition of microvessel formation (rat aortic rings; 100 ng/ml Halofuginone): almost complete inhibition
- inhibition of microvessel formation (rat aortic rings; 250 ng/ml Halofuginone): Complete inhibition
- reversibility of inhibition of microvessel formation (rat aortic rings; removal of the drug on day 2): reversed upon removal of the drug on day 2
- synthesis of collagen type I in bone chondrocytes (collagen type I): inhibits the synthesis of collagen type I
